From BindingDB's records for patent US20230271939 (Ip2Ipo Innovations, 2023)

Key:
[1] = target: T1, eIF-2-alpha kinase GCN2 (Homo sapiens, UniProt Q9P2K8); assay: GCN2 Enzyme Inhibition (ATP 300 uM)
Procedure: (§1) The inhibitory activity of the Example compounds towards GCN2 enzyme was measured according to the description below, using a LanthaScreen TR-FRET (Time Resolved Fluorescence Resonance Energy Transfer) Kinase Activity assay distributed by ThermoFisher Scientific. The full-length human GCN2 enzyme (UniProt accession number Q9P2K8) was used for all experiments (Carna Bioscience). The TR-FRET pair was composed of GFP-eIF2α and LanthaScreen Terbium-labeled anti-peIF2α (pSer52) Antibody. […] Full inhibition (3000 nM commercial reference inhibitor) and DMSO vehicle control wells were also included on the same plate. All volumes were normalized to the final DMSO concentration of 2% of the reaction volume. Next, 5 μL of H2O was added to each well of the plate.

[2] = target: T1, eIF-2-alpha kinase GCN2; assay: GCN2 Enzyme Inhibition (ATP 10 uM)
Procedure: as §1

T1 sequence (Q9P2K8 whole entry): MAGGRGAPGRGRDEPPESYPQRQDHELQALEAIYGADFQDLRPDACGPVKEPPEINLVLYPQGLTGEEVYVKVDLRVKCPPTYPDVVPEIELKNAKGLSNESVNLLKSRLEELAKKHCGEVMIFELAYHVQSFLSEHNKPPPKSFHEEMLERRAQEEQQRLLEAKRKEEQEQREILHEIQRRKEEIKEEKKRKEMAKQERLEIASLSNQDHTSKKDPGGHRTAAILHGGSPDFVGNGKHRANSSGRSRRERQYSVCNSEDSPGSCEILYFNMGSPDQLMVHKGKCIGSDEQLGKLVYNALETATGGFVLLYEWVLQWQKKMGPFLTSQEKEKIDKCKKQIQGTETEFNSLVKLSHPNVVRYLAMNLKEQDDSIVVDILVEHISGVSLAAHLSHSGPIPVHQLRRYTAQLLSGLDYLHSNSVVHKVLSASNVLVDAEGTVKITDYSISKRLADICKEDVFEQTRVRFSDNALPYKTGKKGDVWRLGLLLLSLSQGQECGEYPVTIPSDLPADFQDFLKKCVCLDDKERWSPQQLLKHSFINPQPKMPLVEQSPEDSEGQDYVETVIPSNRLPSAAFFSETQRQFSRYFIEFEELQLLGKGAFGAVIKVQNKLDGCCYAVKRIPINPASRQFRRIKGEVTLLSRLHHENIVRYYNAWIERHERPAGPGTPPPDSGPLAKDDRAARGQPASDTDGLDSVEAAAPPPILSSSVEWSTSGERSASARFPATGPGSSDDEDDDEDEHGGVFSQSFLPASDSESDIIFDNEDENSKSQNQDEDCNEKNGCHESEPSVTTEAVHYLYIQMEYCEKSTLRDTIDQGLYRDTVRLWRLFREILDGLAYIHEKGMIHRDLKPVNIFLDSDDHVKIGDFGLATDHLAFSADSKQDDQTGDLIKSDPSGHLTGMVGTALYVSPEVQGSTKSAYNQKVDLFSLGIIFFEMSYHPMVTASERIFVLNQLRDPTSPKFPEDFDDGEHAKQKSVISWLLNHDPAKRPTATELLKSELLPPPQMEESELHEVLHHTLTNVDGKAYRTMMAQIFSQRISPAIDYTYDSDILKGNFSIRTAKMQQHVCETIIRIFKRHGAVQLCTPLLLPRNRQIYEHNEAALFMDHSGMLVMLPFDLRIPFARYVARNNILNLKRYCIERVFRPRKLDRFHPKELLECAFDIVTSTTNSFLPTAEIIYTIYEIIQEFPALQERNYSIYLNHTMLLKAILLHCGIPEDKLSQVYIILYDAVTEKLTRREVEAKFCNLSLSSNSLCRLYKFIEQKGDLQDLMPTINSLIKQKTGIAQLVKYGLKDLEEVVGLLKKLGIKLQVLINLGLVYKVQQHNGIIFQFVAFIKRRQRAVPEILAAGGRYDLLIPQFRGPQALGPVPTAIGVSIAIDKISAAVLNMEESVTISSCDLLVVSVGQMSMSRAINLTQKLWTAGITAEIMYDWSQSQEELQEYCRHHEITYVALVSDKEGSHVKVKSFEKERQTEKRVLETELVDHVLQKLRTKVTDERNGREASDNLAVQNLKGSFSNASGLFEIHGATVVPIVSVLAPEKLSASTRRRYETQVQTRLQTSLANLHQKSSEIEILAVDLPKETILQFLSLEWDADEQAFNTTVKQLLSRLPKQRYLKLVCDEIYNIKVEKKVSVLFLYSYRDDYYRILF

IC50 [1]: 57.3 nM
Ki [1]: 0.9 nM
IC50 [2]: 19.1 nM
Ki [2]: 6.1 nM
SMILES: COc1ncc(Cl)cc1S(=O)(=O)Nc1ncc(F)c(C#Cc2cnc(N)nc2)c1F [US20230271939, Example 10]
